The NIST ThermoML archive (doi:10.1016/j.jct.2004.04.004)

Assay: xn = mol fraction of the nth substance listed
Settings: 101.3 kPa, Liquid

Cc1ccc(C)cc1 [1,4-dimethylbenzene] + C[S+](C)[O-]
Settings | mass density [kg/m3]
293.15 K, x1 = 0.0599 | 1077
293.15 K, x1 = 0.1284 | 1052.94
293.15 K, x1 = 0.1944 | 1031.59
293.15 K, x1 = 0.2783 | 1006.68
293.15 K, x1 = 0.3589 | 984.83
293.15 K, x1 = 0.4385 | 965.03
293.15 K, x1 = 0.5032 | 950.09
293.15 K, x1 = 0.5539 | 939.03
293.15 K, x1 = 0.6235 | 924.72
293.15 K, x1 = 0.7023 | 909.62
293.15 K, x1 = 0.7635 | 898.63
293.15 K, x1 = 0.8243 | 888.27
293.15 K, x1 = 0.8831 | 878.73
293.15 K, x1 = 0.9327 | 871.04
303.15 K, x1 = 0.0632 | 1067.37
303.15 K, x1 = 0.1639 | 1032.58
303.15 K, x1 = 0.2343 | 1010.65
303.15 K, x1 = 0.2934 | 993.59
303.15 K, x1 = 0.3513 | 977.92
303.15 K, x1 = 0.425 | 959.33
303.15 K, x1 = 0.4892 | 944.29
303.15 K, x1 = 0.5633 | 928.09
303.15 K, x1 = 0.6398 | 912.58
303.15 K, x1 = 0.7135 | 898.68
303.15 K, x1 = 0.7624 | 889.95
303.15 K, x1 = 0.8243 | 879.44
303.15 K, x1 = 0.8609 | 873.48
303.15 K, x1 = 0.9244 | 863.55
313.15 K, x1 = 0.0662 | 1057.67
313.15 K, x1 = 0.1358 | 1033.11
313.15 K, x1 = 0.1942 | 1014.07
313.15 K, x1 = 0.2578 | 994.8
313.15 K, x1 = 0.3249 | 975.96
313.15 K, x1 = 0.3895 | 959.1
313.15 K, x1 = 0.4509 | 944.13
313.15 K, x1 = 0.5345 | 925.24
313.15 K, x1 = 0.6106 | 909.4
313.15 K, x1 = 0.6719 | 897.46
313.15 K, x1 = 0.754 | 882.52
313.15 K, x1 = 0.8358 | 868.7
313.15 K, x1 = 0.9235 | 854.92
323.15 K, x1 = 0.0573 | 1052.39
323.15 K, x1 = 0.1537 | 1018.34
323.15 K, x1 = 0.2359 | 992.38
323.15 K, x1 = 0.3131 | 970.2
323.15 K, x1 = 0.383 | 951.75
323.15 K, x1 = 0.4509 | 935.12
323.15 K, x1 = 0.5234 | 918.67
323.15 K, x1 = 0.5902 | 904.55
323.15 K, x1 = 0.6618 | 890.43
323.15 K, x1 = 0.7385 | 876.35
323.15 K, x1 = 0.8123 | 863.72
323.15 K, x1 = 0.8832 | 852.33
323.15 K, x1 = 0.9321 | 844.86
333.15 K, x1 = 0.0529 | 1045.49
333.15 K, x1 = 0.1248 | 1019.37
333.15 K, x1 = 0.1944 | 996.31
333.15 K, x1 = 0.265 | 974.86
333.15 K, x1 = 0.3398 | 954.01
333.15 K, x1 = 0.4014 | 938.13
333.15 K, x1 = 0.4624 | 923.43
333.15 K, x1 = 0.5137 | 911.8
333.15 K, x1 = 0.5823 | 897.2
333.15 K, x1 = 0.6582 | 882.18
333.15 K, x1 = 0.731 | 868.78
333.15 K, x1 = 0.8043 | 856.2
333.15 K, x1 = 0.8638 | 846.57
333.15 K, x1 = 0.9247 | 837.2
343.15 K, x1 = 0.0638 | 1032.77
343.15 K, x1 = 0.1398 | 1005.47
343.15 K, x1 = 0.2012 | 985.32
343.15 K, x1 = 0.275 | 963.03
343.15 K, x1 = 0.351 | 942.07
343.15 K, x1 = 0.4132 | 926.22
343.15 K, x1 = 0.4891 | 908.31
343.15 K, x1 = 0.5409 | 896.9
343.15 K, x1 = 0.6148 | 881.67
343.15 K, x1 = 0.6728 | 870.48
343.15 K, x1 = 0.7322 | 859.68
343.15 K, x1 = 0.813 | 845.91
343.15 K, x1 = 0.8732 | 836.29
343.15 K, x1 = 0.9322 | 827.33
353.15 K, x1 = 0.0609 | 1025.3
353.15 K, x1 = 0.1428 | 995.69
353.15 K, x1 = 0.218 | 971.2
353.15 K, x1 = 0.2843 | 951.45
353.15 K, x1 = 0.3598 | 930.79
353.15 K, x1 = 0.4241 | 914.57
353.15 K, x1 = 0.481 | 901.17
353.15 K, x1 = 0.5393 | 888.27
353.15 K, x1 = 0.6042 | 874.83
353.15 K, x1 = 0.6629 | 863.42
353.15 K, x1 = 0.7321 | 850.8
353.15 K, x1 = 0.7832 | 842
353.15 K, x1 = 0.833 | 833.83
353.15 K, x1 = 0.9128 | 821.46
